{"source": "patent US20040242662A1", "about": "(priority 2000, published 2004)", "key": {"[1]": {"assay": "logP determination by HPLC (EEC Directive 79/831 Annexe V.A8)", "format": "physicochemical", "details": "gradient method, acetonitrile/0.1% aqueous phosphoric acid", "procedure": "The logP values were determined in accordance with EEC Directive 79/831 Annexe V.A8 by HPLC (gradient method, acetonitrile/0.1% aqueous phosphoric acid)."}, "Phytophthora infestans": {"tested_on": "Phytophthora infestans", "format": "in vivo", "details": "tomato, protective; application rate 50 g/ha; evaluation three days after inoculation; 100% means no infection"}}, "data": [{"molecule": "Cc1c(Cl)nc(Br)n1S(=O)(=O)c1cccnc1Cl", "note": "[Example 1, 3-[(2-bromo-4-chloro-5-methyl-1H-imidazol-1-yl)-sulfonyl]-2-chloropyridine]", "values": [{"measurement": "chromatographic logP", "setting": "[1]", "result": 2.9}, {"measurement": "melting point", "result": "144 to 146", "unit": "°C"}]}, {"molecule": "Cc1c(Br)nc(Br)n1S(=O)(=O)c1cccnc1Cl", "note": "[Example 2]", "values": [{"measurement": "chromatographic logP", "setting": "[1]", "result": 2.97}, {"measurement": "melting point", "result": "154 to 158", "unit": "°C"}]}, {"molecule": "Cc1c(Cl)nc(Br)n1S(=O)(=O)c1cccnc1Cl", "note": "[drawing 18]", "values": [{"measurement": "Efficacy in %", "setting": "Phytophthora infestans", "result": 94, "unit": "%"}]}, {"molecule": "Cc1c(Br)nc(Br)n1S(=O)(=O)c1cccnc1Cl", "note": "[drawing 19]", "values": [{"measurement": "Efficacy in %", "setting": "Phytophthora infestans", "result": 94, "unit": "%"}]}]}
